Assay results published in ChEMBL document CHEMBL2203126, “Diazine indole acetic acids as potent, selective, and orally bioavailable antagonists of chemoattractant receptor homologous molecule expressed on Th2 cells (CRTH2) for the treatment of allergic inflammatory diseases” (J Med Chem, 2012).
≈ marks a conversion by molar mass, not a printed value.

Columns and labels:
[1] = molecular target: T1, Prostaglandin D2 receptor 2 (Homo sapiens, UniProt Q9Y5Y4); assay: biochemical
T1 sequence (Q9Y5Y4 whole entry): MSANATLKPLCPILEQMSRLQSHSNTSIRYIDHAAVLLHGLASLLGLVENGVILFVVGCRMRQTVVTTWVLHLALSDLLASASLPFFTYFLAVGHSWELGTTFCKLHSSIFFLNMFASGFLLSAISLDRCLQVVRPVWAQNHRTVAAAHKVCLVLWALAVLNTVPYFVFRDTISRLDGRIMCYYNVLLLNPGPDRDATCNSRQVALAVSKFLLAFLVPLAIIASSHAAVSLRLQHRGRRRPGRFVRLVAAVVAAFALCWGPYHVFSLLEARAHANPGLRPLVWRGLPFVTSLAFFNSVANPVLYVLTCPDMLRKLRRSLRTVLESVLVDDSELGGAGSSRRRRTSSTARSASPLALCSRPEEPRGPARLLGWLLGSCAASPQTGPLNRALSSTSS
Description: (§1) Displacement of [3H]PGD2 from recombinant human CRTH2 receptor expressed in CHO-K1 cells after 30 min by FRET method

[2] = Dissociation constant, pKa of the compound; assay type: physicochemical
in vitro [3] = settings: human, plasma
Description: Plasma protein binding in human

[4] = Clearance in mouse plasma at 2 mg/kg, iv; assay type: ADME, organism-based; design: dose 2 mg/kg, route intravenous
physchem = settings: buffer, pH 6.6
Description: Aqueous solubility of the compound at pH 6.6

[5] = Half life in mouse at 2 mg/kg, iv; assay type: ADME, organism-based; design: dose 2 mg/kg, route intravenous; settings: in vivo
[6] = Volume of distribution at steady state in mouse at 2 mg/kg, iv; assay type: ADME, organism-based; design: dose 2 mg/kg, route intravenous; settings: in vivo, read-out: Vdss
[7] = Cmax in mouse at 10 mg/kg, po; assay type: ADME, organism-based; design: dose 10 mg/kg, route oral; settings: in vivo
Eosinophil = assay: cells; settings: Homo sapiens, Blood, 10 min
Description: Inhibition of eosinophil shape change in human whole blood after 10 mins by flow cytometric assay

[8] = Oral bioavailability in mouse at 10 mg/kg; assay type: ADME, organism-based; settings: in vivo
in vitro [9] = settings: human, Caco-2, pH 6.2
Description: Apparent permeability in human Caco2 cells at pH 6.2/7.4

in vivo [10] = settings: rat, iv, 2 mg/kg
Description: Half life in rat at 2 mg/kg, iv

in vivo [11] = settings: rat, po, 10 mg/kg
Mus musculus = species: Mus musculus; assay: animal or person; settings: Ear, po, read-out: INH
in vivo [12] = settings: rat, po, 10 mg/kg; remark: listed apart in the source
in vivo [13] = settings: rat, iv, 2 mg/kg; remark: listed apart in the source
Description: Volume of distribution at steady state in rat at 2 mg/kg, iv

in vivo [14] = settings: rat, plasma, iv, 2 mg/kg
Description: Clearance in rat plasma at 2 mg/kg, iv

[15] = Oral bioavailability in mouse; assay type: ADME, organism-based; settings: in vivo
[16] = Effective permeability across human Caco2 cells; assay type: ADME, cell-based; settings: Caco-2, read-out: Peff
[17] = Clearance in mouse; assay type: ADME, organism-based; settings: in vivo
[18] = Half life in mouse liver microsomes; assay type: ADME, Microsome
[19] = molecular target: T1, Prostaglandin D2 receptor 2; settings: cho-k1
Description: as §1

Liver microsomes = assay: Metabolic stability in human liver microsomes; assay type: ADME, Microsome

Compound | IC50 [1] | pKa [2] | further results
COc1ccc2c(c1)c(-c1ccc(=O)n(Cc3ccccc3)n1)c(C)n2CC(=O)O | 104 nM | 4.07 | 
Cc1c(CC2=NN(Cc3ccc(F)cc3F)C(=O)CC2)c2cc(F)ccc2n1CC(=O)O | 4 nM |  | fraction unbound (in vitro [3]): < 0.02; clearance [4]: 9 mL/min/kg; solubility (physchem): 954 µg/mL (≈ 2150 µM); half-life [5]: 240 min; Vd [6]: 1.12 L/kg; Cmax [7]: 1890 ng/mL; IC50 (Eosinophil): 8 nM; bioavailability [8]: 41%
Cc1c(-c2ccc(=O)n(Cc3ccc(F)cc3F)n2)c2cc(F)ccc2n1CC(=O)O | 10 nM |  | Papp (in vitro [9]): 2.1 ×10⁻⁶ cm/s
Cc1c(Cc2ccc(=O)n(Cc3ccc(C(C)(C)O)cc3)n2)c2cc(F)ccc2n1CC(=O)O | 5 nM |  | fraction unbound (in vitro [3]): < 0.02; IC50 (Eosinophil): 13 nM
Cc1c(Cc2ccc(=O)n(Cc3ccncc3F)n2)c2cc(F)ccc2n1CC(=O)O |  |  | fraction unbound (in vitro [3]): < 0.02
Cc1c(Cc2ccc(=O)n(Cc3cc(F)c(F)cc3F)n2)c2cc(F)ccc2n1CC(=O)O | 0.8 nM |  | fraction unbound (in vitro [3]): < 0.02; IC50 (Eosinophil): 10 nM
Cc1c(Cc2ccc(=O)n(Cc3ccccc3)n2)c2cc(Cl)ccc2n1CC(=O)O | 15 nM |  | fraction unbound (in vitro [3]): < 0.02; IC50 (Eosinophil): 15 nM
Cc1c(Cc2ccc(=O)n(Cc3ccc(F)cc3F)n2)c2ccccc2n1CC(=O)O |  |  | fraction unbound (in vitro [3]): < 0.02
Cc1c(Cc2ccc(=O)n(Cc3ccncc3)n2)c2cc(F)ccc2n1CC(=O)O | 12 nM |  | fraction unbound (in vitro [3]): < 0.02; IC50 (Eosinophil): 22 nM
Cc1c(Cc2ccc(=O)n(Cc3ccc(C(F)(F)F)cc3)n2)c2cc(F)ccc2n1CC(=O)O |  |  | fraction unbound (in vitro [3]): < 0.02; IC50 (Eosinophil): 55 nM
Cc1c(Cc2ccc(=O)n(Cc3ccc(C(O)(C(F)(F)F)C(F)(F)F)cc3)n2)c2cc(F)ccc2n1CC(=O)O |  |  | fraction unbound (in vitro [3]): < 0.02; IC50 (Eosinophil): 57 nM
Cc1c(Cc2ccc(=O)n(Cc3ccccc3)n2)c2ccccc2n1CC(=O)O |  |  | fraction unbound (in vitro [3]): < 0.02; IC50 (Eosinophil): 155 nM
Cc1c(Cc2ccc(=O)n(Cc3ccc(F)cc3F)n2)c2cc(F)cc(F)c2n1CC(=O)O |  |  | fraction unbound (in vitro [3]): < 0.02; IC50 (Eosinophil): 180 nM
Cc1c(-c2ccc(=O)n(Cc3ccccc3)n2)c2cc(Cl)ccc2n1CC(=O)O | 28 nM | 4.03 | 
Cc1c(-c2ccc(=O)n(Cc3ccccc3)n2)c2cc(F)ccc2n1CC(=O)O | 23 nM | 4.02 | Papp (in vitro [9]): 0.5 ×10⁻⁶ cm/s
Cc1ccc2c(c1)c(-c1ccc(=O)n(Cc3ccccc3)n1)c(C)n2CC(=O)O | 34 nM | 4.16 | 
Cc1c(-c2ccc(=O)n(Cc3ccccc3)n2)c2cc(S(C)(=O)=O)ccc2n1CC(=O)O | 135 nM | 4 | 
Cc1c(-c2ccc(=O)n(Cc3ccccc3)n2)c2cccc(Br)c2n1CC(=O)O |  | 3.98 | 
Cc1c(-c2ccc(=O)n(Cc3ccccc3)n2)c2cc(Cl)cc(F)c2n1CC(=O)O | 90 nM | 3.86 | 
Cc1c(-c2ccc(=O)n(Cc3ccccc3)n2)c2cc(Cl)cc(Cl)c2n1CC(=O)O | 1690 nM | 3.88 | 
Cc1c(-c2ccc(=O)n(Cc3ccccc3)n2)c2cc(F)cc(F)c2n1CC(=O)O | 76 nM | 3.85 | 

Compound | IC50 [1] | pKa [2] | further results
Cc1c(-c2ccc(=O)n(Cc3ccccc3)n2)c2cc(F)cc(Cl)c2n1CC(=O)O | 245 nM | 3.86 | 
Cc1c(-c2ccc(=O)n(Cc3ccccc3)n2)c2cc(F)cc(S(C)(=O)=O)c2n1CC(=O)O |  | 3.83 | 
Cc1c(-c2ccc(=O)n(Cc3ccccc3)n2)c2cc(S(C)(=O)=O)cc(F)c2n1CC(=O)O | 934 nM | 3.83 | 
Cc1c(-c2nn(Cc3ccccc3)c(=O)c3ccccc23)c2cc(Cl)ccc2n1CC(=O)O | 11 nM |  | 
Cc1c(Cc2nn(Cc3ccccc3)c(=O)c3ccccc23)c2cc(Cl)ccc2n1CC(=O)O | 29 nM |  | 
Cc1c(-c2nn(Cc3ccccc3)c(=O)c3ccccc23)c2cc(F)ccc2n1CC(=O)O | 11 nM |  | 
Cc1c(C2=NN(Cc3ccccc3)C(=O)C3CCCCC23)c2cc(F)ccc2n1CC(=O)O (centres undefined) | 109 nM |  | 
Cc1c(Cc2ccc(=O)n(Cc3ccccc3)n2)c2cc(F)ccc2n1CC(=O)O | 9 nM |  | Papp (in vitro [9]): 4.3 ×10⁻⁶ cm/s
Cc1c(CC2=NN(Cc3ccccc3)C(=O)CC2)c2cc(F)ccc2n1CC(=O)O | 16 nM |  | fraction unbound (in vitro [3]): < 0.02; half-life (in vivo [10]): 258 min; bioavailability (in vivo [11]): 28%; inhibition in vivo at 3 mg/kg (Mus musculus): 34%; Cmax (in vivo [12]): 484 ng/mL; Vd (in vivo [13]): 1.7 L/kg; IC50 (Eosinophil): 4 nM; clearance (in vivo [14]): 13 mL/min/kg
Cc1c(-c2nn(CCOc3ccc(Cl)cc3)c(=O)c3ccccc23)c2cc(Cl)ccc2n1CC(=O)O | 2 nM |  | bioavailability [15]: < 1%; Papp [16]: 0.2 ×10⁻⁶ cm/s; clearance [17]: > 90 mL/min/kg; half-life [18]: 11 min
Cc1c(-c2ccc(=O)n(Cc3ccc(F)cc3)n2)c2cc(F)ccc2n1CC(=O)O |  |  | bioavailability [15]: 11%; Papp [16]: 0.3 ×10⁻⁶ cm/s; clearance [17]: 6.9 mL/min/kg; IC50 [19]: 20 nM; Stability (Liver microsomes): Stable; half-life [18]: > 30 min
Cc1c(-c2nn(Cc3ccccc3)c(=O)c3ccccc23)c2ccccc2n1CC(=O)O | 16 nM |  | 
Cc1c(-c2nn(Cc3ccccc3)c(=O)c3ccccc23)c2ccccc2n1CC(N)=O | > 1000 nM |  | 
Cc1c(-c2nn(Cc3ccccc3)c(=O)c3ccccc23)c2ccccc2n1CC(=O)N(C)C | > 1000 nM |  | 
Cc1c(-c2nn(Cc3ccccc3)c(=O)c3ccccc23)c2ccccc2n1CC(=O)N1CCCC1 | > 1000 nM |  | 
Cc1c(-c2nn(Cc3ccccc3)c(=O)c3ccccc23)c2ccccc2n1CC(=O)NS(C)(=O)=O | > 1000 nM |  | 
Cc1c(-c2nn(Cc3ccccc3)c(=O)c3ccccc23)c2ccccc2n1CCO | > 1000 nM |  | 
Cc1c(-c2nn(Cc3ccccc3)c(=O)c3ccccc23)c2ccccc2n1C(C)C(=O)O (centres undefined) | > 1000 nM |  | 
Cc1c(-c2nn(Cc3ccccc3)c(=O)c3ccccc23)c2ccccc2n1CCC(=O)O | > 1000 nM |  | 
Cc1c(-c2ccc(=O)n(Cc3ccccc3)n2)c2ccccc2n1CC(=O)O | 134 nM | 4.15 | 
Cc1c(-c2ccc(=O)n(Cc3ccccc3)n2)c2cc(Br)ccc2n1CC(=O)O | 16 nM | 4.03 | 
